Measured values reported in patent US9393288B2, “Methods of treating diseases associated with PPARγ” (The University of Vermont and State Agricultural College, priority 2012, dated 2016).
“Also recorded” adds a separate entry of the source.

Legend:
[1] = system: PPARγ and PPARγ target genes; experiment: Expression of PPARγ and PPARγ target genes (qPCR) in adipose tissue and brain cortex, SHR; format: in vivo, rat
Description: After dissecting PA and MCA for isolated vessel experiments, the remaining MCA, PA, and brain cortex from the MCA territory of 4-6 rats were collected and stored at −80° C. in RNase inhibitor (1 unit/μl, RiboLock, Fermentas, Glen Burnie, Md., USA) to determine mRNA expression levels of target genes using real-time qPCR methods. Target genes were assessed using Assays on Demand from Applied Biosystems. […] All primers were designed across an exon-exon junction to avoid detecting genomic DNA, so no DNase treatment was required. Housekeeping gene β-actin was used in all qPCR experiments as a control. Standard techniques for real-time qPCR were performed by the Vermont Cancer Center DNA analysis facility at the University of Vermont, as described previously (Cipolla, M. J., Smith, J., Kohlmeyer, M. M., and Godfrey, J. A. (2009) SKCa and IKCa Channels, myogenic tone, and vasodilator responses in middle cerebral arteries and parenchymal arterioles: effect of ischemia and reperfusion. Stroke 40, 1451-1457).
To investigate the mechanisms by which relaxin causes selectively remodeling of PA, mRNA expression of VEGF, MMP-2, and MMP-9 were compared between MCA, PA, brain cortex. To determine if relaxin activates peroxisome proliferator-activated receptor-gamma (PPARγ), expression levels of PPARγ target genes fatty acid binding protein-4 (FABP4) and plasminogen activator inhibitor-1 (PAI-1) were determined in mesenteric adipose tissue. Expression levels of PPARγ and its target genes PAI-1 and liver X receptors-α (LXR-α) were also determined in brain cortex (Chan, S. L., and Cipolla, M. J. (2012) Determination of PPARgamma activity in adipose tissue and spleen. J Immunoassay Immunochem 33, 314-324).

[2] = system: middle cerebral arteries (MCA); experiment: Pressurized arteriograph: structure of MCA from female SHR; format: in vivo, rat; conditions: SHR-F-Rln vs untreated SHR-F
Description: A separate group of SHR-F was used to determine if relaxin crosses the BBB by treating with relaxin (4 μg/hr) for 14 days and measuring relaxin concentration in cerebrospinal fluid (CSF) and serum (SHR-F-Rln-CSF, n=4). For the osmotic pump implant, animals were anesthetized with 3% isoflurane and minipumps implanted subcutaneously in the back of the neck. All animals received post-surgical analgesia (buprenorphine, 50 μg/kg, s.c.). Relaxin infusion was continuous for 14 days until animals were euthanized for isolated vessel experiments and tissue collection.
After collecting trunk blood, the brain was quickly removed and placed in cold physiological salt solution (PSS). […] Temperature and pH were continuously measured and maintained at 37.0±0.5° C. and 7.40±0.05, respectively. […]
PA and MCA were equilibrated for 1 hour, after which myogenic activity was determined by stepwise increases in pressure from 40 to 100 mmHg for PA or 50 to 175 mmHg for MCA. ID and WT were measured at each pressure once stable. […] To obtain structural measurements, ID and WT were recorded at pressures between 5 to 200 mmHg for PA or 5 to 175 mmHg for MCA in zero-calcium PSS containing ethylene glycol tetra-acetic acid (EGTA) and outer diameter (OD) and distensibility calculated.
Percent tone was calculated as percent decrease in ID from the passive diameter at each intravascular pressure: [1−(IDactive/IDpassive)]×100. […]

[3] = SHR-F-Rln vs SHR-F, listed as Relaxin

Substance: relaxin
- FABP4 expression in adipose tissue [1, 3]: decreased both FABP4 and PAI-1 expressions in adipose tissue, although this was not statistically significant; also recorded: decreased expression of FABP4 and PAI-1 in adipose tissue, although this was not statistically significant
- PAI-1 expression in adipose tissue [1, 3]: decreased both FABP4 and PAI-1 expressions in adipose tissue, although this was not statistically significant; also recorded: decreased expression of FABP4 and PAI-1 in adipose tissue, although this was not statistically significant
- Expression of PPARγ and its target genes (PAI-1, LXR-α) in brain cortex ([1]; WKY-F, SHR-F, SHR-F-Rln): did not affect
- Structure of MCA (passive ID, WT, distensibility) [2]: no effect
